Reference: patent US20130274338A1, “PHARMACEUTICAL COMPOSITIONS COMPRISING DGLA, 15-OHEPA, AND/OR 15-HETRE AND METHODS OF REDUCING SEBUM PRODUCTION USING SAME” (priority 2012, published 2013)
≈ marks a conversion by molar mass, not a printed value.

Tested on: P. acnes
Test: Agar dilution method, growth of P. acnes and MIC, single compounds
Format: cell-based, Propionibacterium acnes
Set-up: key to Growth Index Plate 1 / Growth Index Plate 2 / Growth Index Plate 3 / Growth Index Avg: +++: confluent growth (comparable to control); ++: less confluent growth; +: marked reduction in growth to multiple tiny, single colonies; −: no growth present
Conditions: for MIC: Cutibacterium acnes, read-out: MIC (mg/mL) as per P-11-0007 or P-11-0008 Addendum A
Experimental: Several compounds including fatty acids such as DGLA, 15-OHEPA, and 15-HETrE were tested to determine their capacity to inhibit the growth of P. acnes. In an exemplary method, an agar dilution method was used to determine the minimum inhibitory concentration (MIC) of each tested compound. Briefly, the agar dilution method involved preparing a series of concentrations of each compound (e.g., nicotinamide, benzoyl peroxide, adapalene, metronidazole, DGLA, 15-OHEPA, and 15-HETrE) in a Reinforced Clostridial Agar (RCA) media that facilitates growth of P. acnes under anaerobic conditions. An inoculum of P. acnes was prepared by incubation of P. acnes for approximately seven days at 35-37° C. to achieve a ≧1.0 OD600 inoculum of P. acnes in RCM broth. A portion of this inoculum was then added to the surface of each plate as a 10 μL spot and incubated at 35-37° C. for 72 hours or more. Growth of P. acnes was then observed and compared to control plates in which no compound has been added, and positive inhibition plates prepared with erythromycin. […] The growth of P. acnes in the presence of nicotinamide, benzoyl peroxide, adapalene, metronidazole, DGLA, 15-OHEPA, and 15-HETrE was determined with varying concentrations of the compound (see, Table 2). Next, the MIC was determined as the concentration at which a marked reduction (+) occurs in the appearance of growth on the test plate (as per Clinical and Laboratory Standards Institute M11-A7).

[1] = compound alone, MIC = concentration with marked reduction (+) of growth

MIC [1] | SMILES | Growth Index Avg (compound at 0.2 mg/mL) | Growth Index Plate 1 (compound at 0.2 mg/mL) | Growth Index Plate 2 (compound at 0.2 mg/mL) | Growth Index Plate 3 (compound at 0.2 mg/mL) | Growth Index Avg (compound at 0.4 mg/mL) | Growth Index Plate 1 (compound at 0.4 mg/mL) | Growth Index Plate 2 (compound at 0.4 mg/mL) | Growth Index Plate 3 (compound at 0.4 mg/mL) | Growth Index Avg (compound at 0.6 mg/mL) | Growth Index Plate 1 (compound at 0.6 mg/mL) | Growth Index Plate 2 (compound at 0.6 mg/mL) | Growth Index Plate 3 (compound at 0.6 mg/mL) | Growth Index Avg (compound at 0.8 mg/mL) | Growth Index Plate 1 (compound at 0.8 mg/mL) | Growth Index Plate 2 (compound at 0.8 mg/mL) | Growth Index Plate 3 (compound at 0.8 mg/mL) | Growth Index Avg (compound at 1.0 mg/mL) | Growth Index Plate 1 (compound at 1.0 mg/mL) | Growth Index Plate 2 (compound at 1.0 mg/mL) | also measured
> 0.8 mg/mL | COc1ccc(-c2ccc3cc(C(=O)O)ccc3c2)cc1C12CC3CC(CC(C3)C1)C2 [Adapalene, 6-[3-(1-adamantyl)-4-methoxyphenyl]-2-naphthoic acid] | +++ | +++ | +++ | +++ | +++ | +++ | +++ | +++ | ++ | ++ | ++ | +++ | ++ | ++ | ++ | ++ |  |  |  | MIC (mg/mL) as per P-11-0007 or P-11-0008 Addendum A [1]: > 0.8 mg/mL
0.6 to 0.8 mg/mL (≈ 2.48 to 3.3 mM) | O=C(OOC(=O)c1ccccc1)c1ccccc1 [Benzoyl Peroxide] | +++ | +++ | +++ | +++ | +++ | +++ | +++ | +++ | ++ | ++ | +++ | ++ | + | + | + | + | − | − | − | Growth Index Plate 3 (compound at 1.0 mg/mL): −
> 1 mg/mL | Cc1ncc([N+](=O)[O-])n1CCO [Metronidazole] | +++ | +++ | +++ | +++ | +++ | +++ | +++ | +++ | +++ | +++ | +++ | +++ | +++ | +++ | +++ | +++ | +++ | +++ | ++ | Growth Index Plate 3 (compound at 1.0 mg/mL): +++
10 to 15 mg/mL (≈ 81.9 to 123 mM) | NC(=O)c1cccnc1 [Nicotinamide] |  |  |  |  |  |  |  |  |  |  |  |  |  |  |  |  |  |  |  | Growth Index Avg (compound at 1 mg/mL): +++; Growth Index Plate 1 (compound at 1 mg/mL): +++; Growth Index Plate 2 (compound at 1 mg/mL): +++; Growth Index Plate 3 (compound at 1 mg/mL): +++; Growth Index Avg (compound at 5 mg/mL): +++; Growth Index Plate 1 (compound at 5 mg/mL): +++; Growth Index Plate 2 (compound at 5 mg/mL): +++; Growth Index Plate 3 (compound at 5 mg/mL): +++; Growth Index Avg (compound at 10 mg/mL): ++; Growth Index Plate 1 (compound at 10 mg/mL): ++; Growth Index Plate 2 (compound at 10 mg/mL): ++; Growth Index Plate 3 (compound at 10 mg/mL): ++; Growth Index Avg (compound at 15 mg/mL): +; Growth Index Plate 1 (compound at 15 mg/mL): −; Growth Index Plate 2 (compound at 15 mg/mL): +; Growth Index Plate 3 (compound at 15 mg/mL): +; Growth Index Avg (compound at 25 mg/mL): −; Growth Index Plate 1 (compound at 25 mg/mL): −; Growth Index Plate 2 (compound at 25 mg/mL): −; Growth Index Plate 3 (compound at 25 mg/mL): −
